Key:
[1] = Inhibitory activity against Opioid receptor kappa1 binding to bovine striatal membrane
[2] = Inhibitory activity against Opioid receptor delta 1 binding to bovine striatal membrane
Mu-type opioid receptor [3] = target: T1, Mu-type opioid receptor (Bos taurus, UniProt P79350); test: Inhibitory activity against Opioid receptor mu 1 binding to bovine striatal membrane; set-up: species or system Striatum
Mu-type opioid receptor [4] = target: T1, Mu-type opioid receptor; test: Binding affinity towards Opioid receptor mu 1 using [3H]DAMGO expressed as Kd
[5] = target: Mu-type opioid receptor (Bos taurus) (UniProt P79350); test: Effect at dose 40 nM on wash-resistant inhibition of [3H]DAMGO binding to TPCK-treated membranes; set-up: scale not given: the % may be the effect or the level left
Chain of Mu-type opioid receptor (Bos taurus) (P79350 whole entry): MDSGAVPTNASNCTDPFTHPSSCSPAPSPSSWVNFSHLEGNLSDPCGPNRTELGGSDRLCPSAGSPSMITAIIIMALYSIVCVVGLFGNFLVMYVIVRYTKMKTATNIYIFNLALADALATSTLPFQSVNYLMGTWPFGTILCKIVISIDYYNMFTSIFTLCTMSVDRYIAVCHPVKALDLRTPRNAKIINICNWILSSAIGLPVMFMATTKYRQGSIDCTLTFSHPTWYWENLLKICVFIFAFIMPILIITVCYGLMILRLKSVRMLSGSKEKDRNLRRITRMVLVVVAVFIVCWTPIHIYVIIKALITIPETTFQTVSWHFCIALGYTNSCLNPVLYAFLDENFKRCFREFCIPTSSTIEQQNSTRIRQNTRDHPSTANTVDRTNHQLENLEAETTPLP

T1 sequence (P79350 whole entry): as above

Control [5] [%]	Compound	IC50 [1] [nM]	IC50 [2] [nM]	IC50 (Mu-type opioid receptor [3]) [nM]	Kd (Mu-type opioid receptor [4]) [nM]
	CN1CC[C@]23c4c5ccc(O)c4O[C@H]2C(=O)CC[C@@]3(NC(=O)CSSCC(=O)N[C@@]23CCC(=O)[C@@H]4Oc6c(O)ccc7c6[C@@]42CCN(C)[C@@H]3C7)[C@H]1C5	41	11		
	CN1CC[C@]23c4c5ccc(O)c4O[C@@]2(C)C(=O)CC[C@@]3(NC(=O)CSSCC(=O)N[C@@]23CCC(=O)[C@]4(C)Oc6c(O)ccc7c6[C@@]42CCN(C)C3C7)C1C5			2.9	
	C[C@@]12Oc3c(O)ccc4c3[C@@]13CCN(CC1CC1)[C@H](C4)[C@]3(NC(=O)CSSCC(=O)N[C@@]13CCC(=O)[C@]4(C)Oc5c(O)ccc6c5[C@@]41CCN(CC1CC1)[C@@H]3C6)CCC2=O			1.4	0.4
107	OC(CS)C(O)CS (centres undefined)				
	O=C(CSSCC(=O)N[C@@]12CCC(=O)[C@@H]3Oc4c(O)ccc5c4[C@@]31CCN(CC1CC1)[C@@H]2C5)N[C@@]12CCC(=O)[C@@H]3Oc4c(O)ccc5c4[C@@]31CCN(CC1CC1)[C@@H]2C5	10	24	3.9	

From ChEMBL document CHEMBL1128783, “N-Methyl and N-cyclopropylmethyl-14,14-[dithiobis[(2-oxo-2,1-ethanediyl)imino]]bis(7,8-dihydro-5-methyl-morphinone) MET-TAMO and N-CPM-MET-TAMO: Synthesis and opioid binding properties” (Bioorg Med Chem Lett, 1995)
